{"source": "paper PMC3701070", "about": "(PLoS ONE, 2013)", "test_in_all_cases": "Cell growth assay", "type_in_all_cases": "cell-based", "key": {"786-O": {"system": "786-O", "settings": "Homo sapiens, 786-0, 72 h, RAF WT, RAS WT, 3-day, read-out: gIC50", "outline": "(§1)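 Cells were read with CellTiter-Glo reagent at time zero and after 72 h of exposure. From the change in signal, the concentration giving half-maximal growth inhibition (gIC50) was calculated.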"}, "A172": {"system": "A172", "settings": "Homo sapiens, A 172, 72 h; A172, RAF WT, RAS WT, 3-day; read-out: gIC50", "outline": "as §1"}, "A431": {"system": "A431", "settings": "Homo sapiens, A-431, 72 h; A431, RAF WT, RAS WT, 3-day; read-out: gIC50", "outline": "as §1"}, "ACHN": {"system": "ACHN", "settings": "Homo sapiens, 72 h, RAF WT, RAS WT, 3-day, read-out: gIC50", "outline": "as §1"}, "BC-1": {"system": "BC-1", "settings": "Homo sapiens, BC1, 72 h; BC-1, RAF WT, RAS WT, 3-day; read-out: gIC50", "outline": "as §1"}, "CEM/C1": {"system": "CEM/C1", "settings": "Homo sapiens, 72 h; CEM/C1, RAF WT, RAS WT, 3-day; read-out: gIC50", "outline": "as §1"}, "CESS": {"system": "CESS", "settings": "Homo sapiens, 72 h, RAF WT, RAS WT, 3-day, read-out: gIC50", "outline": "as §1"}, "Calu-3": {"system": "Calu-3", "settings": "Homo sapiens, 72 h; Calu-3, RAF WT, RAS WT, 3-day; read-out: gIC50", "outline": "as §1"}, "Colo320DM": {"system": "Colo320DM", "settings": "Homo sapiens, COLO 320DM, 72 h, RAF WT, RAS WT, 3-day, read-out: gIC50", "outline": "as §1"}, "HOS": {"system": "HOS", "settings": "Homo sapiens, 72 h, RAF WT, RAS WT, 3-day, read-out: gIC50", "outline": "as §1"}, "Hep3B": {"system": "Hep3B", "settings": "Homo sapiens, 72 h, RAF WT, RAS WT, 3-day, read-out: gIC50", "outline": "as §1"}, "JM1": {"system": "JM1", "settings": "Homo sapiens, 72 h; JM1, RAF WT, RAS WT, 3-day; read-out: gIC50", "outline": "as §1"}, "KPL-1": {"system": "KPL-1", "settings": "Homo sapiens, 72 h; KPL-1, RAF WT, RAS WT, 3-day; read-out: gIC50", "outline": "as §1"}, "MDA-MB-175 VII": {"system": "MDA-MB-175 VII", "settings": "Homo sapiens, 72 h, RAF WT, RAS WT, 3-day, read-out: gIC50", "outline": "as §1"}, "Molt-4": {"system": "Molt-4", "settings": "Homo sapiens, 72 h; Molt-4, RAF WT, RAS WT, 3-day; read-out: gIC50", "outline": "as §1"}, "NCI-H2228": {"system": "NCI-H2228", "settings": "Homo sapiens, 72 h; NCI-H2228, RAF WT, RAS WT, 3-day; read-out: gIC50", "outline": "as §1"}, "NCI-H661": {"system": "NCI-H661", "settings": "Homo sapiens, 72 h; NCI-H661, RAF WT, RAS WT, 3-day; read-out: gIC50", "outline": "as §1"}, "NCI-H69": {"system": "NCI-H69", "settings": "Homo sapiens, 72 h; NCI-H69, RAF WT, RAS WT, 3-day; read-out: gIC50", "outline": "as §1"}, "NCI-N87": {"system": "NCI-N87", "settings": "Homo sapiens, 72 h; NCI-N87, RAF WT, RAS WT, 3-day; read-out: gIC50", "outline": "as §1"}, "P3HR-1": {"system": "P3HR-1", "settings": "Homo sapiens, 72 h; P3HR-1, RAF WT, RAS WT, 3-day; read-out: gIC50", "outline": "as §1"}, "RD": {"system": "RD", "settings": "Homo sapiens, 72 h, RAF WT, RAS WT, 3-day, read-out: gIC50", "outline": "as §1"}, "SCC-9": {"system": "SCC-9", "settings": "Homo sapiens, 72 h; SCC-9, RAF WT, RAS WT, 3-day; read-out: gIC50", "outline": "as §1"}, "SF-295": {"system": "SF-295", "settings": "Homo sapiens, 72 h; SF-295, RAF WT, RAS WT, 3-day; read-out: gIC50", "outline": "as §1"}, "SK-MEL-3": {"system": "SK-MEL-3", "settings": "Homo sapiens, SK-MEL3, 72 h; SK-MEL-3, BRAF(V600E), RAS WT, 3-day; read-out: gIC50", "outline": "as §1"}, "SNU-16": {"system": "SNU-16", "settings": "Homo sapiens, 72 h; SNU-16, RAF WT, RAS WT, 3-day; read-out: gIC50", "outline": "as §1"}, "SW-780": {"system": "SW-780", "settings": "Homo sapiens, SW780, 72 h; SW-780, RAF WT, RAS WT, 3-day; read-out: gIC50", "outline": "as §1"}, "SW1088": {"system": "SW1088", "settings": "Homo sapiens, 72 h; SW1088, RAF WT, RAS WT, 3-day; read-out: gIC50", "outline": "as §1"}, "SW1417": {"system": "SW1417", "settings": "Homo sapiens, 72 h; SW1417, BRAF(V600E), RAS WT, 3-day; read-out: gIC50", "outline": "as §1"}, "SW1463": {"system": "SW1463", "settings": "Homo sapiens, 72 h; SW1463, RAF WT, RAS WT, 3-day; read-out: gIC50", "outline": "as §1"}, "SW872": {"system": "SW872", "settings": "Homo sapiens, 72 h; SW872, BRAF(V600E), RAS WT, 3-day; read-out: gIC50", "outline": "as §1"}, "TE381.T": {"system": "TE381.T", "settings": "Homo sapiens, TE 381.T, 72 h, RAF WT, RAS WT, 3-day, read-out: gIC50", "outline": "as §1"}, "TK-10": {"system": "TK-10", "settings": "Homo sapiens, 72 h; TK-10, RAF WT, RAS WT, 3-day; read-out: gIC50", "outline": "as §1"}, "UMUC-3": {"system": "UMUC-3", "settings": "Homo sapiens, UMUC3, 72 h; UMUC-3, RAF WT, KRAS(G12C), 3-day; read-out: gIC50", "outline": "as §1"}}, "data": [{"smiles": "CC(C)(C)c1nc(-c2cccc(NS(=O)(=O)c3c(F)cccc3F)c2F)c(-c2ccnc(N)n2)s1", "note": "[dabrafenib]", "values": [{"measurement": "IC50", "setting": "786-O", "result": "> 10", "unit": "µM"}, {"measurement": "IC50", "setting": "A172", "result": "> 10", "unit": "µM"}, {"measurement": "IC50", "setting": "A431", "result": "> 10", "unit": "µM"}, {"measurement": "IC50", "setting": "ACHN", "result": 0.294, "unit": "µM"}, {"measurement": "IC50", "setting": "BC-1", "result": 0.704, "unit": "µM"}, {"measurement": "IC50", "setting": "CEM/C1", "result": 1.77, "unit": "µM"}, {"measurement": "IC50", "setting": "CESS", "result": 0.497, "unit": "µM"}, {"measurement": "IC50", "setting": "Calu-3", "result": "> 10", "unit": "µM"}, {"measurement": "IC50", "setting": "Colo320DM", "result": "> 10", "unit": "µM"}, {"measurement": "IC50", "setting": "HOS", "result": "> 10", "unit": "µM"}, {"measurement": "IC50", "setting": "Hep3B", "result": "> 10", "unit": "µM"}, {"measurement": "IC50", "setting": "JM1", "result": "> 10", "unit": "µM"}, {"measurement": "IC50", "setting": "KPL-1", "result": "> 10", "unit": "µM"}, {"measurement": "IC50", "setting": "MDA-MB-175 VII", "result": "> 10", "unit": "µM"}, {"measurement": "IC50", "setting": "Molt-4", "result": "> 10", "unit": "µM"}, {"measurement": "IC50", "setting": "NCI-H2228", "result": "> 10", "unit": "µM"}, {"measurement": "IC50", "setting": "NCI-H661", "result": "> 10", "unit": "µM"}, {"measurement": "IC50", "setting": "NCI-H69", "result": "> 10", "unit": "µM"}, {"measurement": "IC50", "setting": "NCI-N87", "result": "> 10", "unit": "µM"}, {"measurement": "IC50", "setting": "P3HR-1", "result": "> 10", "unit": "µM"}, {"measurement": "IC50", "setting": "RD", "result": "> 10", "unit": "µM"}, {"measurement": "IC50", "setting": "SCC-9", "result": "> 10", "unit": "µM"}, {"measurement": "IC50", "setting": "SF-295", "result": "> 10", "unit": "µM"}, {"measurement": "IC50", "setting": "SK-MEL-3", "result": 0.007, "unit": "µM"}, {"measurement": "IC50", "setting": "SNU-16", "result": "> 10", "unit": "µM"}, {"measurement": "IC50", "setting": "SW-780", "result": "> 10", "unit": "µM"}, {"measurement": "IC50", "setting": "SW1088", "result": "> 10", "unit": "µM"}, {"measurement": "IC50", "setting": "SW1417", "result": 0.158, "unit": "µM"}, {"measurement": "IC50", "setting": "SW1463", "result": "> 10", "unit": "µM"}, {"measurement": "IC50", "setting": "SW872", "result": 0.377, "unit": "µM"}, {"measurement": "IC50", "setting": "TE381.T", "result": "> 10", "unit": "µM"}, {"measurement": "IC50", "setting": "TK-10", "result": "> 10", "unit": "µM"}, {"measurement": "IC50", "setting": "UMUC-3", "result": "> 10", "unit": "µM"}]}]}
